Assay results: patent publication USRE50663E1, “Heterocycle derivatives as pesticides” (Bayer Aktiengesellschaft, priority 2017, dated 2025)
Where two headings read alike, the source gives them in different places.

Tests used:
[1] = test system: green peach aphids (Myzus persicae); assay: Myzus persicae oral test; assay type: in vivo; conditions: 120 h, read-out: efficacy
Protocol: Solvent: 100 parts by weight of acetone
To produce a suitable active compound formulation, 1 part by weight of active compound is dissolved with the stated parts by weight of solvent and made up to the desired concentration with water.
50 μl of the active compound formulation are transferred into microtitre plates and made up to a final volume of 200 μl with 150 μl of IPL41 insect medium (33%+15% sugar). Subsequently, the plates are sealed with parafilm, which a mixed population of green peach aphids (Myzus persicae) within a second microtitre plate is able to puncture and imbibe the solution.
(§1) After 5 days, the efficacy in % is determined. 100% means that all the aphids have been killed; 0% means that no aphids have been killed.

[2] = test system: green peach aphid (Myzus persicae); assay: Myzus persicae spray test; assay type: in vivo; conditions: foliar, 120 h, read-out: efficacy
Protocol: Solvent: 78 parts by weight of acetone • • 1.5 parts by weight of dimethylformamide
(§2) Emulsifier: alkylaryl polyglycol ether
(§3) To produce a suitable active compound formulation, 1 part by weight of active compound is dissolved with the specified parts by weight of solvent and made up to the desired concentration with water containing an emulsifier concentration of 1000 ppm. To produce further test concentrations, the formulation is diluted with emulsifier-containing water.
Discs of Chinese cabbage leaves (Brassica pekinensis) infested by all stages of the green peach aphid (Myzus persicae) are sprayed with an active compound formulation of the desired concentration.
as §1

[3] = test system: adult cat fleas (Ctenocephalides felis); assay: Ctenocephalides felis oral test; assay type: in vivo; conditions: 48 h, read-out: efficacy (kill)
Protocol: (§4) Solvent: dimethyl sulfoxide
To produce a suitable active compound formulation, 10 mg of active compound are mixed with 0.5 ml of dimethyl sulfoxide. Dilution with citrated cattle blood gives the desired concentration.
About 20 unfed adult cat fleas (Ctenocephalides felis) are placed into a chamber which is closed at the top and bottom with gauze. A metal cylinder whose bottom end is closed with parafilm is placed onto the chamber. The cylinder contains the blood/active compound formulation, which can be imbibed by the fleas through the parafilm membrane.
After 2 days, the kill in % is determined. 100% means that all of the fleas have been killed; 0% means that none of the fleas have been killed.

[4] = test system: larvae of the mustard beetle (Phaedon cochleariae); assay: Phaedon cochleariae spray test; assay type: in vivo; conditions: foliar, 168 h, read-out: efficacy
Protocol: (§5) Solvent: 78.0 parts by weight of acetone • • 1.5 parts by weight of dimethylformamide
as §2, §3
Discs of Chinese cabbage leaves (Brassica pekinensis) are sprayed with an active compound formulation of the desired concentration and, after drying, populated with larvae of the mustard beetle (Phaedon cochleariae).
After 7 days, the efficacy in % is determined. 100% means that all the beetle larvae have been killed; 0% means that no beetle larvae have been killed.

[5] = test system: caterpillars of the fall armyworm (Spodoptera frugiperda); assay: Spodoptera frugiperda spray test; assay type: in vivo; conditions: foliar, 168 h, read-out: efficacy
Protocol: as §5, §2, §3
Leaf discs of maize (Zea mays) are sprayed with an active compound formulation of the desired concentration and, after drying, populated with caterpillars of the fall armyworm (Spodoptera frugiperda).
After 7 days, the efficacy in % is determined. 100% means that all the caterpillars have been killed; 0% means that no caterpillar has been killed.

[6] = test system: adult cat fleas (Ctenocephalides felis); assay: Ctenocephalides felis in vitro contact test with adult cat fleas; assay type: in vivo; conditions: application rate 5 μg/cm^2 (=500 g/ha), after 48 h, dead or moribund fleas
Protocol: For the coating of the test tubes, 9 mg of active compound are first dissolved in 1 ml of acetone p.a. and then diluted to the desired concentration with acetone p.a. 250 μl of the solution are distributed homogeneously on the inner walls and the base of a 25 ml glass tube by turning and rocking on an orbital shaker (rocking rotation at 30 rpm for 2 h). With 900 ppm of active compound solution and internal surface area 44.7 cm^2, given homogeneous distribution, an area-based dose of 5 μg/cm^2 is achieved.
After the solvent has evaporated off, the tubes are populated with 5-10 adult cat fleas (Ctenocephalides felis), sealed with a perforated plastic lid and incubated in a horizontal position at room temperature and ambient humidity. After 48 h, efficacy is determined. To this end, the tubes are stood upright and the fleas are knocked to the base of the tube. Fleas which remain motionless at the base or move in an uncoordinated manner are considered to be dead or moribund.
100% efficacy means that all the fleas were dead or moribund. 0% efficacy means that no fleas were harmed.

[7] = test system: L1 larvae of the Australian sheep blowfly (Lucilia cuprina); assay: Lucilia cuprina test; assay type: in vivo; conditions: 48 h, read-out: efficacy (kill)
Protocol: as §4
(§6) To produce a suitable active compound formulation, 10 mg of active compound are mixed with 0.5 ml of dimethyl sulfoxide, and the concentrate is diluted with water to the desired concentration.
About 20 L1 larvae of the Australian sheep blowfly (Lucilia cuprina) are transferred into a test vessel containing minced horsemeat and the active compound formulation of the desired concentration.
After 2 days, the kill in % is determined. 100% means that all the larvae have been killed; 0% means that no larvae have been killed.

[8] = test system: adult houseflies (Musca domestica); assay: Musca domestica test; assay type: in vivo; conditions: after 2 days
Protocol: as §4, §6
Vessels containing a sponge treated with sugar solution and the desired concentration of active compound formulation are populated with 10 adult houseflies (Musca domestica).
After 2 days, the kill in % is determined. 100% means that all of the flies have been killed; 0% means that none of the flies have been killed.

[9] = test system: southern root-knot nematode (Meloidogyne incognita); assay: Meloidogyne incognita test; assay type: in vivo; conditions: 20 ppm, after 14 days, lettuce
Protocol: Solvent: 125.0 parts by weight of acetone
To produce a suitable active compound formulation, 1 part by weight of active compound is mixed with the stated amount of solvent and the concentrate is diluted to the desired concentration with water.
Vessels are filled with sand, active compound solution, an egg/larvae suspension of the southern root-knot nematode (Meloidogyne incognita) and lettuce seeds. The lettuce seeds germinate and the plants develop. The galls develop on the roots.
After 14 days, the nematicidal efficacy in % is determined by the formation of galls. 100% means that no galls were found; 0% means that the number of galls on the treated plants corresponds to the untreated control.

[10] = logP by HPLC on reversed-phase column (C18), acidic range; assay type: physicochemical; conditions: formic acid in water/acetonitrile
Protocol: The logP values were determined according to EEC Directive 79/831 Annex V.A8 by HPLC (high-performance liquid chromatography) on a reversed-phase column (C18) using the following methods:
Calibration was carried out using a homologous series of straight-chain alkan-2-ones (having 3 to 16 carbon atoms) with known logP values. The values between successive alkanones are determined by linear regression.

[11] = test system: engorged adult female cattle ticks (Boophilus microplus); assay: Boophilus microplus injection test; assay type: in vivo; conditions: 20 μg/animal, injection into abdomen
Protocol: as §4
To produce a suitable active compound formulation, 10 mg of active compound are mixed with 0.5 ml of solvent and the concentrate is diluted to the desired concentration with solvent.
1 μl of the active compound solution is injected into the abdomen of 5 engorged adult female cattle ticks (Boophilus microplus). The animals are transferred into dishes and kept in a climate-controlled room.
The activity is assessed after the desired time by laying of fertile eggs. Eggs which are not visibly fertile are stored in a climate-controlled cabinet until the larvae hatch after about 42 days. An efficacy of 100% means that none of the ticks has laid any fertile eggs; 0% means that all the eggs are fertile.

[12] = 100 g/ha, after 5 days, Chinese cabbage leaf discs
[13] = 100 ppm in citrated cattle blood, after 2 days
[14] = 100 g/ha, after 7 days, Chinese cabbage leaf discs
[15] = 100 g/ha, after 7 days, maize leaf discs
[16] = reversed-phase HPLC column (C18)

SMILES	pest or weed control at 4 ppm ([1]; 4 ppm, after 5 days)	pest or weed control at 100 g/ha [2, 12]	pest or weed control at 100 ppm [3, 13]	pest or weed control at 100 g/ha [4, 14]	pest or weed control at 100 g/ha [5, 15]	efficacy [6]	pest or weed control at 100 ppm ([7]; 100 ppm, after 2 days)	efficacy (kill) ([8]; 100 ppm)	further results
CCS(=O)(=O)c1c(-c2nc3cc(C(F)(F)F)cnc3n2C)nc2cc(NC(=O)C3CC3)ccn12 [Example I-01]	100%	90%	100%	100%	100%	100%	100%	80%	–
CCS(=O)(=O)c1c(-c2nc3cc(C(F)(F)F)cnc3n2C)nc2cc(NC(=O)OC3CCC3)ccn12 [Example I-02]	–	–	100%	–	–	100%	–	–	pest or weed control at 4 ppm [1]: 100%; pest or weed control at 100 g/ha ([2]; in Brassica rapa): 70%; pest or weed control at 100 g/ha ([4]; in Brassica rapa): 67%; pest or weed control at 100 g/ha ([5]; in Zea mays): 83%; pest or weed control at 100 ppm [7]: 100%
CCS(=O)(=O)c1c(-c2nc3cc(C(F)(F)F)cnc3n2C)nc2cc(NC(=O)NC3CC3)ccn12 [Example I-03]	100%	100%	100%	100%	–	–	100%	–	–
CCS(=O)(=O)c1c(-c2nc3cc(C(F)(F)F)cnc3n2C)nc2cc(NC(=O)OCC3CC3)ccn12 [Example I-04]	–	–	100%	–	–	–	–	–	pest or weed control at 100 g/ha ([4]; in Brassica rapa): 100%; pest or weed control at 100 g/ha ([5]; in Zea mays): 100%; pest or weed control at 100 ppm [7]: 100%
CCS(=O)(=O)c1c(-c2nc3cc(C(F)(F)F)cnc3n2C)nc2cc(NC(=S)NC3CC3)ccn12 [Example I-05, 1-Cyclopropyl-3-{3-(ethylsulfonyl)-2-[3-methyl-6-(trifluoromethyl)-3H-imidazo[4,5-b]pyridin-2-yl]imidazo [1,2-a]pyridin-7-yl}thiourea]	100%	90%	100%	100%	100%	–	100%	100%	nematicidal efficacy (formation of galls) [9]: 90%; chromatographic logP [10, 16]: 2.71
CCS(=O)(=O)c1c(-c2nc3cc(C(F)(F)F)cnc3n2C)nc2cc(NS(=O)(=O)NC3CC3)ccn12 [Example I-07, N-Cyclopropyl-N′-{3-(ethylsulfonyl)-2-[3-methyl-6-(trifluoromethyl)-3H-imidazo[4,5-b]pyridin-2-yl]imidazo[1,2-a]pyridin-7-yl}sulfurdiamide]	100%	–	100%	–	–	100%	100%	80%	chromatographic logP [10, 16]: 2.55
CCS(=O)(=O)c1c(-c2nc3cc(C(F)(F)F)cnc3n2C)nc2cc(NC(=O)OC3(C)CC3)ccn12 [Example I-08, 1-Methylcyclopropyl-{3-(ethylsulfonyl)-2-[3-methyl-6-(trifluoromethyl)-3H-imidazo[4,5-b]pyridin-2-yl]imidazo[1,2-a]pyridin-7-yl}carbamate]	–	–	–	–	–	–	–	–	pest or weed control at 4 ppm [1]: 100%; pest or weed control at 100 ppm [3]: 100%; pest or weed control at 100 g/ha ([4]; in Brassica rapa): 100%; pest or weed control at 100 g/ha ([5]; in Zea mays): 100%; chromatographic logP [10]: 3.14; pest or weed control at 100 ppm [7]: 100%
CCS(=O)(=O)c1c(-c2nc3cc(C(F)(F)F)cnc3n2C)nc2cc(S(=O)(=O)C3CC3)ccn12 [Example I-09, 2-[7-(Cyclopropylsulfonyl)-3-(ethylsulfonyl)imidazo[1,2-a]pyridin-2-yl]-3-methyl-6-(trifluoromethyl)-3H-imidazo[4,5-b]pyridine]	100%	90%	100%	100%	100%	100%	100%	–	chromatographic logP [10, 16]: 2.89; efficacy (kill) ([8]; 20 ppm): 80%
CCS(=O)(=O)c1c(-c2nc3cc(SC(F)(F)F)cnc3n2C)nc2cc(S(=O)(=O)C3CC3)ccn12 [Example I-12]	100%	100%	100%	100%	100%	–	–	100%	–
CCS(=O)(=O)c1c(-c2nc3cc(SC(F)(F)F)cnc3n2C)nc2cc(NC(=O)C3CC3)ccn12 [Example I-13]	100%	90%	100%	100%	100%	100%	100%	–	–
CCS(=O)(=O)c1c(-c2nc3cc(C(F)(F)F)cnc3n2C)nc2cc(C(=O)C3CC3)ccn12 [Example I-20]	–	–	–	100%	100%	–	–	–	efficacy (no laying of fertile eggs) [11]: 80%
CCS(=O)(=O)c1c(-c2nc3cc(C(F)(F)F)cnc3n2C)nc2cc(C(F)(F)C3CC3)ccn12 [Example I-21]	–	–	100%	100%	100%	–	–	–	efficacy (no laying of fertile eggs) [11]: 90%
